In assay [1] the target is T1, ovine COX-1 (Ovis aries, UniProt P05979).
T1 construct: purchased Cayman Chemical, USA 560131
T1 sequence (P05979 25-600): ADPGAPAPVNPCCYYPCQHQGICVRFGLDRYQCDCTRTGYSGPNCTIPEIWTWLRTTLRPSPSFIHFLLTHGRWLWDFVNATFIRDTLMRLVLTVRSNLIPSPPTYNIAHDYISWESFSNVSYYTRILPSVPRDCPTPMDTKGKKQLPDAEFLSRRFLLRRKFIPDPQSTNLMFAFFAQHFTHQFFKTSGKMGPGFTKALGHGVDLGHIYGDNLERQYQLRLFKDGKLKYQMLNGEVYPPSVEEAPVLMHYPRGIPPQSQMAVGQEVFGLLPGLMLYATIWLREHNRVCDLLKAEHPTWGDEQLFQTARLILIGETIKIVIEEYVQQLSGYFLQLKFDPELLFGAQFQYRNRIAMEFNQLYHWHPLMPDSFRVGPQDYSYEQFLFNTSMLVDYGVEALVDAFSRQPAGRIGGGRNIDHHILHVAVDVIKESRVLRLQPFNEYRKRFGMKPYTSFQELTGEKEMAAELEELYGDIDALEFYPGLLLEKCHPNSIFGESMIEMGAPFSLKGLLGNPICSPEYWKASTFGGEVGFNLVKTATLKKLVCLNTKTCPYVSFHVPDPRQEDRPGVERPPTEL
Nature of the assay: COX (ovine) Inhibitor Screening Assay, COX-1 (EIA of PGF2α). The note with it: Cayman COX inhibitor screening assay kit. Type of assay: biochemical. The source says: (§1) 2-Butanone, ethylcyanoacetate (≥98%), dimethylformamide (≥99.5%), ethanol (≥99%), n-hexane, cyanamide and sulphur (≥99.5%) were bought from Acros Chemical (USA). Diethylamine, sodium sulphate anhydrous and analytical grade NaOH pellets were bought from Fisher Scientific (UK). 1,4-dioxane, concentrated HCl, ethyl acetate, hexane, chloroform, 4-fluorobenzoyl chloride (98%) , 4-methoxyphenyl acetonitrile (≥97%), 4-fluorophenyl acetonitrile (≥99%), and 2-(trifluoromethyl)benzoyl chloride were bought from Aldrich Chemicals. TLC Silica gel 60 F254 was obtained from Merck, USA. COX inhibitor screening assay kit (Item no. 560131) was procured from Cayman Chemical, USA.
(§2) The COX (ovine) Inhibitor Screening Assay was performed mainly to determine the selective inhibition of tested compounds (4a, 4b, 5a, 5b) towards the ovine COX-1 and human recombinant COX-2 isoenzymes. The addition of arachidonic acid (AA) helped to convert the COX component into PGG2, followed by reduction of PGG2 into PGH2. The following addition of SnCl2 converted PGH2 into PGF2α. The assay directly measures the PGF2α0 via enzyme immunoassay (EIA) using a broadly specific antiserum that bound to all PG tracers. Depending on the tested compounds inhibitory effect, the concentration of PGF2α in each well varied and was inversely proportional to the amount of PG tracers that was able to bind to the antiserum. PG tracers-antiserum complex was left to bind to the mouse monoclonal anti-rabbit antibody that has been coated to the well during the 18 hours incubation. Ellman's reagent was added to give distinct yellow coloration to the products from this enzymatic reaction, which absorbed strongly at 412 nm. The intensity of the color was proportional to the amount of PG tracers-antiserum complex bound to the well, which was inversely proportional to the concentration of PGF2α present.
(§3) The inhibitory activity of tested compounds was determined based on IC50 values whereas the selectivity was based on their selectivity indices (SI), which defined as COX-1 IC50/COX-2 IC50. In the assay system, indomethacin was used as non-selective COX inhibitor standard while NS-398 was used as COX-2 selective inhibitor standard.

The target of assay [2] is T2, human recombinant COX-2 (Homo sapiens, UniProt P35354).
T2 construct: purchased Cayman Chemical, USA 560131
T2 sequence (P35354 18-604): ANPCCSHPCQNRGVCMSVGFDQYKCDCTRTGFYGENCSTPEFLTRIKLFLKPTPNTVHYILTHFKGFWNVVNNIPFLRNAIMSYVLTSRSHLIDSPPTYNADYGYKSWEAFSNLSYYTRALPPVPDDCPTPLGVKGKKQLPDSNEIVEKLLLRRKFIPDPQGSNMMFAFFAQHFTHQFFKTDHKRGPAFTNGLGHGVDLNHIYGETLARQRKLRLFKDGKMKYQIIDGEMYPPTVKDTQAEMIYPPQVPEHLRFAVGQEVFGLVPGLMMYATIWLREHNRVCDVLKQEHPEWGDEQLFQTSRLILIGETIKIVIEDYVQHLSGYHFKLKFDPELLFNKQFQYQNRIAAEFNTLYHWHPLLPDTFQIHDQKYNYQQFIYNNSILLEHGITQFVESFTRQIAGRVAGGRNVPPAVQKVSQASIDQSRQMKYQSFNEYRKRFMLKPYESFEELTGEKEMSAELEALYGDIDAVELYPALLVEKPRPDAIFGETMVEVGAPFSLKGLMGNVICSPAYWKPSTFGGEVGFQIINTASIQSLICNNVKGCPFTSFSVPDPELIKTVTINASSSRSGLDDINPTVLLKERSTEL
Nature of the assay: COX Inhibitor Screening Assay, COX-2 (EIA of PGF2α). Type of assay: biochemical. The note with it: for IC50: human recombinant COX-2, Cayman COX inhibitor screening assay kit; for SI (selectivity index, COX-1 IC50/COX-2 IC50): ratio COX-1 IC50/COX-2 IC50; for selective inhibition against COX-2: statement in words, COX-2 versus COX-1.
Excerpt: as §1, §2, §3

Consider `COc1ccc(Cc2nc3sc(C)c(C)c3c(=O)[nH]2)cc1` [Compound 4b, 2-(4-Methoxybenzyl)-5,6-dimethylthieno[2,3-d]pyrimidin-4(3H)-one], for which the midpoint of inhibition in assay [1], the IC50, lay at 586 µM. For the same molecule, in assay [2], the IC50 (as a rule, the concentration that gives 50% inhibition) was 143 µM; the “SI (selectivity index, COX-1 IC50/COX-2 IC50)” value is 4.11; the “selective inhibition against COX-2” value is on record as “mild selective inhibition”.
In the same order, the values of `Cc1sc2nc(NC(=O)c3ccccc3C(F)(F)F)[nH]c(=O)c2c1C` [Compound 5b, N-(5,6-dimethyl-4-oxo-3,4-dihydrothieno[2,3-d]pyrimidin-2-yl)-2-(trifluoromethyl)benzamide] are 21.8 µM, 189 µM, 0.12 and “mild selective inhibition”.
`Cc1sc2nc(Cc3ccc(F)cc3)[nH]c(=O)c2c1C` [Compound 4a, 2-(4-Fluorobenzyl)-5,6-dimethylthieno[2,3-d]pyrimidin-4(3H)-one] displayed an IC50 in assay [1] of 203 µM. In assay [2], the IC50 amounted to 42.2 µM; the “SI (selectivity index, COX-1 IC50/COX-2 IC50)” value is listed as 4.81; the “selective inhibition against COX-2” value is “mild selective inhibition”.
As to `Cc1sc2nc(NC(=O)c3ccc(F)cc3)[nH]c(=O)c2c1C` [Compound 5a, N-(5,6-Dimethyl-4-oxo-3,4-dihydrothieno[2,3-d]pyrimidin-2-yl)-4-fluorobenzamide], in assay [1], half-maximal inhibition (IC50) was put at 112 µM. In addition, in assay [2], the IC50 was 103 µM; the “SI (selectivity index, COX-1 IC50/COX-2 IC50)” value is 1.08; the “selective inhibition against COX-2” value is “mild selective inhibition”.

The values above are taken from patent US11932656B1, “Thieno[2,3-d]pyrimidines as COX-2 inhibitors” (KING FAISAL UNIVERSITY, priority 2023, dated 2024).
